Several values for one entry are separate records, joined by “and”; a condition that tells them apart may be missing. Equal values may be shown once.
Key:
[1] = Urea nitrogen (BUN) value in blood plasma 6 days after single caudate vein administration to normal mice (index for nephrotoxicity); settings: normal mouse, 6 days after single administration, ratio to non-treated group
Method: (§1) In FIG. 5, calculated were duration integrations (up to 17 days since drug treatment) of relative values in a change in a tumor volume and a weight change on a zero day, and the ratios of the drug-treated group to the drug-non-treat group in the values were shown as an antitumor effect and a weight change respectively. Further, the drug was administered once from a caudate vein to a normal C57BL6/N mouse (n=4, male, 6 ages in week) to evaluate a urea nitrogen (BUN) value in blood plasma after 6 days. […] The ratio of the drug-treated group to the drug-non-treat group in this BUN value was calculated as well, and the relative BUN value to the CDDP-equivalent dosage was shown in FIG. 5(C).

Louis pulmonary cancer = experiment: Antitumor effect and weight change after single caudate vein administration to mice with subcutaneously transplanted Louis pulmonary cancer
Method: as §1

[2] = Blood plasma platinum concentration and accumulation of platinum in tumor and principal organs after caudate vein administration to tumor-bearing mice
Method: Evaluated were a change in a blood plasma platinum concentration and a change with the passage of time in accumulation of platinum in the principal organs observed when free CDDP and the CDDP-encapsulating micelle were administered from a caudate vein to a C57BL6/N mouse (n=4, male, 6 ages in week) in which Louis pulmonary cancer was subcutaneously transplanted to a hypogastric region, and the results thereof are shown in FIG. 4.

[3] = 0–24 hours, tissue platinum concentration-time curve

## cis-Diaminedichloroplatinum (II) [CDDP]
[1]
  relative BUN value: rise in the BUN value
Louis pulmonary cancer; 12 mg/kg
  toxic death: one mouse out of 3 mice
Louis pulmonary cancer; mouse, in vivo
  weight change: reduction in the weight
Louis pulmonary cancer; single caudate vein administration, tumor volume integration up to 17 days, ratio to non-treated group
  antitumor effect: increase in the antitumor effect
[2]; [3]
  Kidney AUC/tumor AUC: 3.9 and 7.7
  Liver AUC/tumor AUC: 2.6 and 2.7
  Muscle AUC/tumor AUC: 0.13 and 0.17
  Spleen AUC/tumor AUC: 0.31 and 0.43
[2]; immediately after administration (about 15 minutes)
  accumulation of platinum in a kidney: high accumulation immediately after administration

From patent US7125546B2, “Polymeric micelle containing cisplatin enclosed therein and use thereof” (Toudai TLO, Ltd., priority 2000, dated 2006)
